Tests used:
[1] = test system: HER2 amplified (HER2-positive PIK3CA-mutant) breast cancer cell lines; assay: Viability assay (CellTiter-Glo), HER2 amplified breast cancer cell lines; format: cell-based; details: viability by ATP quantification
Text: (§1) In a cell proliferation assay, we investigated the effect of inavolisib and alpelisib (both PI3Kα specific inhibitors) on vialibility of breast cancer cell lines having different HER2 expression and PIK3CA mutant status. Unexpectedly, we observed a significant difference between the sensitivity of inavolisib and alpelisib in HER2 amplified (˜20 fold difference between the mean IC50 values) versus HER2 negative cell lines (˜6-fold difference between two inhibitors). Both inhibitors were not differentiated in wild-type (WT) cell lines regardless of HER2 status (FIG. 1).
(§2) Cell lines were obtained from the ATCC. All cell lines underwent authentication by Short Tandem Repeat profiling, SNP fingerprinting, and mycoplasma testing (Yu M. et al. “A resource for cell line authentication, annotation and quality control” Nature 520, 307-311 (2015)). Cell lines were grown under standard tissue-culture conditions in RPMI media with 10% fetal bovine serum (Gibco, 10082-147), 100 U/mL penicillin-streptomycin (Gibco, 15140-122), 2 mmol/L L-glutamine (Gibco, 15030-081). […]
(§3) Viability assay: Cells were seeded (1000-2000 cells/well) in 384-well plates for 16 hours. […] After 4 days, relative numbers of viable cells were measured by luminescence using CellTiter-Glo® (Promega) according to the manufacturer's instructions and read on a Wallac Multilabel Reader (PerkinElmer, Foster City). […]

[2] = test system: HER2 negative (PIK3CA-mutant) breast cancer cell lines; assay: Viability assay (CellTiter-Glo), HER2 negative breast cancer cell lines; format: cell-based; details: viability by ATP quantification
Text: as §1, §2, §3

[3] = molecular target: Class I PI3K alpha isoform (PI3Kα) versus Class I PI3K beta, delta, and gamma isoforms (Homo sapiens, UniProt P42336); details: cited from earlier work
Sequence of Class I PI3K alpha isoform (PI3Kα) versus Class I PI3K beta, delta, and gamma isoforms (P42336 whole entry, canonical isoform): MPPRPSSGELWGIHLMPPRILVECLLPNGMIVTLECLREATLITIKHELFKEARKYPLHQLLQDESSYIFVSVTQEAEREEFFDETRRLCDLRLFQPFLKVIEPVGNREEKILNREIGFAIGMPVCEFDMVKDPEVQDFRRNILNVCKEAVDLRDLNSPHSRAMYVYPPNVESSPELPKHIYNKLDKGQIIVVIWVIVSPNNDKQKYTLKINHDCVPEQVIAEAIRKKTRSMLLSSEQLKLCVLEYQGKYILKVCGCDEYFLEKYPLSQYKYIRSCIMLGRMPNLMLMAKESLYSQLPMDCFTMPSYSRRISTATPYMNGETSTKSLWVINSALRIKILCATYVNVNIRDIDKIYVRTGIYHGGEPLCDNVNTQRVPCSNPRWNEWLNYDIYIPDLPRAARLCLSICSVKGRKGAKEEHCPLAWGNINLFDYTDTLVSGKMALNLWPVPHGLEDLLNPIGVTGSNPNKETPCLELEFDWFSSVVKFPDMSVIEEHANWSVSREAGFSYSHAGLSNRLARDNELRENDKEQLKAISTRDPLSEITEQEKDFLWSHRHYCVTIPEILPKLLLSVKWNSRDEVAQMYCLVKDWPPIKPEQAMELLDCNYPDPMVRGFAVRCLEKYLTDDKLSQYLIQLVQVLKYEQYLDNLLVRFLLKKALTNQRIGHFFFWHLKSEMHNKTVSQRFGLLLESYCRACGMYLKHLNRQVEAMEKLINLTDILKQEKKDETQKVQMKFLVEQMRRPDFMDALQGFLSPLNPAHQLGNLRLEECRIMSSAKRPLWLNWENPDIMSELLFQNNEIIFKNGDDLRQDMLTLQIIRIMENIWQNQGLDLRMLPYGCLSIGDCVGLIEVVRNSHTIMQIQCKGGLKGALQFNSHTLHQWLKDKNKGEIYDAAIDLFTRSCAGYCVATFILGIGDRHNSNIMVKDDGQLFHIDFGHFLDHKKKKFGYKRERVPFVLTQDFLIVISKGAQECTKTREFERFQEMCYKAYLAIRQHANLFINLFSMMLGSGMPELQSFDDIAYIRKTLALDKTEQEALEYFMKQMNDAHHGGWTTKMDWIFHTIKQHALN
Sequence of Class I PI3K alpha isoform (PI3Kα) versus Class I PI3K beta, delta, and gamma isoforms (P27986 whole entry partner, canonical isoform): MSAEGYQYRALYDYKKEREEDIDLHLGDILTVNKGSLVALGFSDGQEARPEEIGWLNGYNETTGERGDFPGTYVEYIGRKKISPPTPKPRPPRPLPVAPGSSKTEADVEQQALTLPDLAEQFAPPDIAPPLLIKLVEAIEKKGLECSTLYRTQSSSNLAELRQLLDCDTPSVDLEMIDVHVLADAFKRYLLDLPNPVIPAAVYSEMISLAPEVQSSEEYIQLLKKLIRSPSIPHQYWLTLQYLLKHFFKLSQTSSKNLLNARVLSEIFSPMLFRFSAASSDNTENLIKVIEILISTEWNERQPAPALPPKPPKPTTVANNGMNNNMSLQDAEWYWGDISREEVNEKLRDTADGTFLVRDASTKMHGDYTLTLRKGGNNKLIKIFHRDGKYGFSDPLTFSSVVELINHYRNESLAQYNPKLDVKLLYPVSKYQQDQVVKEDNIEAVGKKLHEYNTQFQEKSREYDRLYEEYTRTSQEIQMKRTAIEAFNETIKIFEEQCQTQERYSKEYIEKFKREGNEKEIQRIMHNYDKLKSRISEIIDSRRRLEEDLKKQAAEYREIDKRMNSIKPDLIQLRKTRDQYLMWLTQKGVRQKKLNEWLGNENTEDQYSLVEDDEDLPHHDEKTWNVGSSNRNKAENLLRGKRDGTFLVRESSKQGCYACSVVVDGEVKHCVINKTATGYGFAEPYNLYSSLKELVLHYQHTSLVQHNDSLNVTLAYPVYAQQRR

[4] = test system: KPL-4 (HER2-positive, PIK3CA H1047R) breast cancer xenograft; assay: In vivo tumor growth inhibition, KPL-4 breast cancer xenograft model; details: inavolisib 25 mg/kg orally daily 28 days, trastuzumab 3 mg/kg and pertuzumab 2.5 mg/kg i.p. weekly 4 weeks
Method: The in vivo efficacy of the test compounds and combinations was tested in a KPL-4 (HER2-positive, PIK3CA H1047R) breast cancer xenograft model. […] Tumor volumes were measured using Ultra Cal-IV calipers (Model 54-10-111; Fred V. Fowler Co.; Newton, MA). The following formula was used in Excel, version 11.2 to calculate tumor volume: Tumor Volume (mm^3)=(Length×Width^2)×0.5. Mice for efficacy studies were distributed into 8-10 mice/group with a mean tumor volume of 200 to 250 mm^3 at the initiation of dosing. A linear mixed effect (LME) modeling approach was used to analyze the repeated measurement of tumor volumes from the same animals over time (Pinheiro et al., “Linear and Nonlinear Mixed Effects Models” R package version 3; 1-131 (2017)). Cubic regression splines were used to fit a non-linear profile to the time courses of log^2 tumor volume at each dose level. These non-linear profiles were then related to dose within the mixed model. Tumor growth inhibition as a percentage of vehicle control (%TGI) was calculated as the percentage of the area under the fitted curve (AUC) for the respective dose group per day in relation to the vehicle, using the following formula: %TGI=100×(1−AUCdose/AUCvehicle).
Tumor sizes and mouse body weights were recorded twice weekly, and mice with tumor volume exceeding 2000 mm^3 or body weight loss of 20% of starting weight were promptly euthanized.

In the case of C[C@H](Nc1ccc2c(c1)OCCn1cc(N3C(=O)OC[C@H]3C(F)F)nc1-2)C(N)=O [inavolisib, (S)-2-((2-((S)-4-(difluoromethyl)-2-oxooxazolidin-3-yl)-5,6-dihydrobenzo[f]imidazo[1,2-d][1,4]oxazepin-9-yl)amino)propanamide], the “difference between the mean IC50 values of inavolisib and alpelisib” value [1] is given as about 20 fold, the “difference between two inhibitors (mean IC50 values of inavolisib and alpelisib)” value [2] is given as 6 fold and the “less potent biochemical inhibition for other Class I PI3K beta, delta, and gamma isoforms (selectivity for PI3Kα)” value [3] is given as over 300 fold. The “Growth Effect Duration” value [4] was over 31.0, the “Growth Rate Contrast” value [4] was −0.069 and the “Growth Contrast” value ([4]; 9 mice per group) was −0.086.
